Measurements taken from PMC12114812 (Pharmaceutics, 2025).
Converted amounts (≈) assume the structure as drawn. Like-named read-outs stand apart in the source and are kept apart here.

Key:
[1] = pKa determination, spectrometric UV-metric titration (SiriusT3); type: physicochemical; conditions: aqueous 0.15 M KCl solution; I = 0.15 M, 25 °C; standard deviation in parenthesis; read-out: pKa (second value)
Method: The pKa and logPo/w determinations were performed using the SiriusT3 titrator (Pion Inc.). […] For the analysis, 5 μL of a 10 mM DMSO sample stock solution, and 25 μL of a 15 mM potassium phosphate buffer, were added to 1.5 mL of a 0.15 M KCl solution. The UV-metric titration method used the UV absorbance changes in the aromatic groups close to the ionizable groups of the substance as a function of pH [30]. […] Results are the mean value from four triple titrations.

physchem = type: physicochemical; conditions: I = 0.15 M, 25 °C, standard deviation in parenthesis
Method: The pKa and logPo/w determinations were performed using the SiriusT3 titrator (Pion Inc.). The titrations were carried out from pH 12.0 to 2.0 due to the acidic nature of the drugs, at an ionic strength of 0.15 M (KCl), under an argon atmosphere and controlled temperature (25.0 ± 0.1 °C).
Octanol–water partition values, logPo/w, were obtained by potentiometric titrations in the presence of octanol at concentrations between 1.4 mM and 0.4 mM.

[2] = CheqSol potentiometric intrinsic solubility and supersaturation; type: physicochemical; conditions: for pH range in which the drug precipitated from solution: CheqSol titration from pH 12.0 to low pH, with and without excipients; for time of supersaturation: with hydrophilic excipients; for ts, time of supersaturation: drug:excipient 1:1; for ts, time of supersaturation / solubility: 0.17 M KCl; for solubility: aqueous titration solution, without excipient; for Rs, supersaturation ratio: Rs = Cmax/S0, S0 of the API in a medium without excipients
Description: For the determination of the intrinsic solubility using the potentiometric method, two events must happen: First, the compound must be fully dissolved at the beginning of the titration. Second, the precipitation of the compound from the solution should occur close to the equivalent point of the titration curve. The amount of compound used in a CheqSol determination must be enough to achieve both events. […] All titrations started at pH 12.0, where the compounds were ionized and titrated to a low pH to force precipitation. […] At this point, the sample existed in a supersaturated or subsaturated state (i.e., chase equilibrium). The change between the subsaturated and supersaturated states was repeated several times to determine the intrinsic solubility by calculating the pH by interpolation between the two saturated states. The intrinsic solubility was calculated using the principles of mass and charge balance at the pH at which the equilibrium of the system was reached.
The CheqSol method not only provides the thermodynamic solubility of the neutral form (S0) of an ionizable compound but also the extent and time that a solution remains supersaturated before reaching S0. Both parameters are used to evaluate the supersaturation of a compound [10]. In this method, the experiment starts in conditions where the drug is completely ionized, and so, fully dissolved. Therefore, the concentration of the neutral species in solution is “zero”. The titration begins by titrating towards the pKa of the drug, to force precipitation as the neutral species starts to form. During this process, the concentration of the neutral species in solution increases to a maximum (Cmax) before the drug precipitates. When precipitation starts, it decreases dramatically to a much lower concentration to reach the intrinsic solubility. It must be noted that, before the drug precipitates, the solution is supersaturated. […] The supersaturation parameters can be obtained from the plot that monitors the concentration of neutral species in solution against time. […] The extent of the supersaturation corresponds to the maximum concentration of the neutral species in solution (Cmax) before the drug precipitates, and the duration of the supersaturation (ts) is the amount of time that the drug stays supersaturated until it reaches equilibrium solubility. In addition, the supersaturation ratio (Rs) can be calculated by dividing Cmax by the intrinsic solubility (S0).

[3] = Ionization degree at the studied pH according to pKa; type: physicochemical
Method: Therefore, this pH value was also included in the study. […] When the solubility of the free drugs (without excipients) is evaluated, it can be observed that the intrinsic solubility is in agreement with their hydrophobicity (Table 1). […] Benzthiazide has an intermediate solubility. Moreover, as expected, the solubility of the compounds increases with the ionization degree. […] Here, a slight increase is observed.

[4] = Shake-flask solubility with and without excipient (maleic/maleate buffers, HPLC quantification); type: physicochemical; conditions: 25 °C
Method: Prior to performing the solubility measurements, maleic/maleate buffers were prepared as follows: a stock solution containing 55 mM maleic acid, 126 mM sodium chloride, and 82 mM NaOH (conditions that mimic the fed state of the intestinal fluid) was made following the guidelines of Biorelevant. Final buffers at pH 2, 5.8, and 6.5 were prepared by the addition of HCl or NaOH to three different aliquots of the stock solution. […] The weighed amount must be enough to obtain saturated solutions, which depends on the sample and pH of the buffer used. The samples were shaken for 24 h at 25 ± 0.5 °C, with a pH control of the solutions after 4 h of shaking. […] After shaking for 24 h, the samples were allowed to equilibrate for an additional 24 h. Subsequently, the final pH was measured, and phase separation was carried out via centrifugation. […] The quantification of the supernatant was performed by liquid chromatography under isocratic conditions using methanol/10 mM phosphate buffer at pH 7.5 as the mobile phase. […] The flow rate was set at 1 mL/min, with an injection volume of 10 μL. […] If necessary, an appropriate dilution in water of the saturated supernatant was carried out to ensure its fit in the range of calibration. The effect of a given excipient on the solubility of a drug depends on both the nature of the compound and the nature of the excipient used. To evaluate if the enhancement in solubility is significant with respect to the solubility in water when the excipients are added, the criterion of twice the standard deviation (sd) was applied. […] This value was chosen because it corresponds to an average standard deviation obtained in our laboratory for shake-flask solubility determinations and it also agrees with typical sd reported in the literature.

[5] = parameters: method as in PMID 29481859; conditions: I = 0.15 M, 25 °C; cited from earlier work
[6] = CheqSol, 25 °C, standard deviation in parenthesis
[7] = thermodynamic from solid, CheqSol, 25 °C, standard deviation in parenthesis, read-out: log S0 (intrinsic solubility) (converted)
[8] = pH 2, Captisol, 1:1 excipient:API weight ratio
[9] = pH 2, Cavasol, 1:1 excipient:API weight ratio
[10] = pH 2, Klucel, 1:1 excipient:API weight ratio
[11] = pH 2, Kollidon, 1:1 excipient:API weight ratio
[12] = pH 2, S630, 1:1 excipient:API weight ratio
[13] = pH 5.8, Captisol, 1:1 excipient:API weight ratio
[14] = pH 5.8, Cavasol, 1:1 excipient:API weight ratio
[15] = pH 5.8, Klucel, 1:1 excipient:API weight ratio
[16] = pH 5.8, Kollidon, 1:1 excipient:API weight ratio
[17] = pH 5.8, S630, 1:1 excipient:API weight ratio
[18] = pH 6.5, Captisol, 1:1 excipient:API weight ratio
[19] = pH 6.5, Cavasol, 1:1 excipient:API weight ratio
[20] = pH 6.5, Klucel, 1:1 excipient:API weight ratio
[21] = pH 6.5, Kollidon, 1:1 excipient:API weight ratio
[22] = pH 6.5, S630, 1:1 excipient:API weight ratio
[23] = standard deviation in parenthesis

pH range in which the drug precipitated from solution [2]	time of supersaturation ([2]; CheqSol)	ts, time of supersaturation [2, 6]	solubility [2, 7] [µM]	ionization degree ([3]; pH 5.8, anionic form)	ionization degree ([3]; pH 6.5, anionic form)	logP (physchem; octanol/water)	SEXC/SAPI [4, 8]	SEXC/SAPI [4, 9]	SEXC/SAPI [4, 10]	SEXC/SAPI [4, 11]	SEXC/SAPI [4, 12]	SEXC/SAPI [4, 13]	SEXC/SAPI [4, 14]	SEXC/SAPI [4, 15]	SEXC/SAPI [4, 16]	SEXC/SAPI [4, 17]	SEXC/SAPI [4, 18]	SEXC/SAPI [4, 19]	SEXC/SAPI [4, 20]	Structure (SMILES)	other results
5.7–6.7 pH	~ 10 min	7 (1) min	21.4 (≈ 7.08 µg/mL)	75%	96%	–	–	–	–	–	–	–	–	–	–	–	–	–	–	CN1C(C(=O)Nc2ccccn2)=C(O)c2ccccc2S1(=O)=O [Piroxicam]	pKa [1]: 5.34; logP (physchem): 1.71; ionization degree ([3]; pH 2, cationic form, positively charged): around 40%
3.7–6.7 pH	~ 20 min	11 (3) min	1.91 (≈ 0.639 µg/mL)	fully ionized	~100%	2.99	1.48	1.45	1.50	1.47	1.81	1.44	1.56	1.93	1.88	1.96	1.52	1.61	1.84	Cc1cc(NC(=O)C2=C(O)c3ccccc3S(=O)(=O)N2C)no1 [Isoxicam]	SEXC/SAPI [4, 21]: 1.93; SEXC/SAPI [4, 22]: 1.73; time the initial metastable form is stabilized ([2]; CheqSol, in the presence of klucel): around 16 min; ts, time of supersaturation ([2]; CheqSol, 25 °C, standard deviation in parenthesis, listed as isoxicam): 11 min; Rs, supersaturation ratio [2, 23]: 48 (4); Rs, supersaturation ratio ([2]; standard deviation in parenthesis, listed as isoxicam): 48; solubility ([2]; CheqSol, Figure 2A, read-out: Intrinsic solubility): 1.88 µM (≈ 0.63 µg/mL); ionization degree ([3]; pH 5.8, anionic form, listed as isoxicam): ~100%
6.6–8.7 pH	~ 20 min	6 (1) min	11.2 (≈ 4.85 µg/mL)	–	around 40%	1.89	1.14	0.97	1.20	1.29	1.61	1.09	0.83	1.12	1.21	1.49	1.29	0.98	1.15	NS(=O)(=O)c1cc2c(cc1Cl)N=C(CSCc1ccccc1)NS2(=O)=O [Benzthiazide]	SEXC/SAPI [4, 21]: 1.24; SEXC/SAPI [4, 22]: 1.28; Rs, supersaturation ratio [2, 23]: 4 (1); Rs, fold higher ([2]; in the presence of klucel and plasdone S630): 40 fold; Rs, fold higher ([2]; in the presence of kollidon): 100 fold; pKa (first value) [5]: 6.64; pKa (second value) [5]: 9.22
